Source: patent US9388175B2, “2-aniline-4-aryl substituted thiazole derivatives” (Janssen Pharmaceutica N.V., priority 2005, dated 2016)

target: T1, hα7-wt nAChR stably expressed in the GH4C1 cell line (Homo sapiens, UniProt P36544); test: Ca2+ flux imaging (FLIPR) of PAM activity with choline as agonist; format: cell-based; conditions: efficacy relative to 100 μM choline alone (defined as 1); peak fluorescence, fluo-4AM; compounds tested 0.1 μM to 30 μM, efficacy criterion at 10 μM
T1 construct: expressed in transfected cells
T1 sequence (P36544 23-502): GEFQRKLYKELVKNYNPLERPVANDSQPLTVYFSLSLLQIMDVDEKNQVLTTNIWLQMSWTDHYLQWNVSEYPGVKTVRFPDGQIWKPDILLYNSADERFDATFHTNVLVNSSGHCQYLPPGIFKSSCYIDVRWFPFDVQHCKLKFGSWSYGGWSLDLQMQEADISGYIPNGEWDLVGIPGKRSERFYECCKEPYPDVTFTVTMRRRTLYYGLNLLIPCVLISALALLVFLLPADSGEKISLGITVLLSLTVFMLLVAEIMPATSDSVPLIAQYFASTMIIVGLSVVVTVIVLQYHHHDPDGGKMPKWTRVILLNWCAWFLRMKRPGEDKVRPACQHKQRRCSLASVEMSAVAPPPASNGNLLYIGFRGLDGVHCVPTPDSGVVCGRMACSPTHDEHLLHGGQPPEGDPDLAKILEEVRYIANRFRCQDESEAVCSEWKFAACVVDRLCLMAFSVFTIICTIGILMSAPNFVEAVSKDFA
Excerpt: Stable expression in mammalian cells in general and rat GH4C1 cells in particular, of cDNA clones encoding the human α7 wild-type sequence (hα7-wt nAChR) and in which the coding region is placed downstream of a promoter results in the appearance of functional α7 nAChRs on the surface of the mammalian cells. This technique has provided a powerful means of assessing the function of α7 wild-type protein. Given the fact that the cation permeability of the α7 nicotinic receptor preferentially favours calcium, fluorescent imaging of Ca^2+ flux through the hα7-wt nAChR stably expressed in the GH4C1 cell line was used as a first means of assaying modulator activity of the compounds of the present invention.
a) Assay Buffer • Hanks buffered saline solution (HBSS, Invitrogen, Belgium), supplemented with 10 mM HEPES (Invitrogen, Belgium), CaCl2 to a final concentration of 5 mM, 0.1% Bovine serum albumin (Sigma-Aldrich NV, Belgium), 2.5 mM probenecid (Sigma-Aldrich NV, Belgium).
b) Calcium-Sensitive Dye—Fluo-4AM • Fluo-4AM (Molecular Probes, USA) was dissolved in DMSO containing 10% Pluronic acid (Molecular Probes, USA) to give a stock solution which was aliquoted and could be stored at −20° C. until later use. On the day of the experiment Fluo-4AM stock was defrosted and diluted in DMEM/F12 (Invitrogen, Belgium) containing 2.5 mM probenicid and 0.1% BSA to give a final concentration of 2 μM.
c) 96-well Plates • BD Biocoat poly-D-lysine 96-well black/clear bottom plates (BD Biosciences, Belgium)
d) Calcium Flux Measurement • A Fluorimetric Imaging Plate Reader (FLIPR, Molecular Devices Corporation, Sunnyvale, USA) was used to measure intracellular free-calcium flux signals
Monolayers of hα7-wt nAChR-expressing cells were grown in multi-well plates, in particular black-sided, transparent bottomed 96 well plates coated with poly-D-lysine for 24 hours prior to loading with a fluorescent calcium indicator, in a particular embodiment loading with fluo-3 or fluo-4AM for up to 90 minutes, in an even more particular embodiment loading with fluo-4AM for up to 90 minutes, and in a preferred embodiment loading with fluo-4AM for 60 minutes.
In a particular embodiment, the α7 nicotinic receptor agonist was choline, a more particular embodiment choline applied at a sub-maximal concentration of 100 μM.
A control response to choline was calculated on each plate from the difference in peak fluorescence in wells receiving either choline or assay buffer alone. Compounds of the present invention were tested at a concentration range from 0.1 μM to 30 μM.
The activity ranges are defined as follows; A denotes an activity range from 1.1 till 1.5, B denotes an activity range from 1.5 till 2.0, C denotes an activity range from 2.0 till 3.0, D denotes an activity range from 3.0 till 4.5 and E denotes an efficacy from at least 4.5.

Row | SMILES | Activity Range
1 | CSc1ccc(Nc2nc(-c3cnc4ccccn34)cs2)cn1 [Compound 49] | E (E denotes an efficacy from at least 4.5)
2 | OCc1sc(Nc2ccc(Cl)cc2Cl)nc1-c1ccccc1 [Compound 3] | D (D denotes an activity range from 3.0 till 4.5)
3 | Fc1cccc(-c2csc(Nc3cccc(C(F)(F)F)c3)n2)c1 [int. 12] | C (C denotes an activity range from 2.0 till 3.0)
4 | COc1ccc(Nc2nc(-c3cccnc3)c(C)s2)cc1 [Compound 139] | D (D denotes an activity range from 3.0 till 4.5)
5 | FC(F)(F)c1cccc(Nc2nc(-c3cnc4ccccn34)cs2)c1 [Compound 56] | C (C denotes an activity range from 2.0 till 3.0)
6 | Fc1ccc(Nc2nc(-c3cccnc3)c(CN3CCOCC3)s2)cc1C(F)(F)F [Compound 90, (4-Fluoro-3-trifluoromethyl-phenyl)-(5-morpholin-4-ylmethyl-4-pyridin-3-yl-thiazol-2-yl)-amine] | C (C denotes an activity range from 2.0 till 3.0)
7 | COc1ccc(-c2csc(Nc3cccc(Cl)c3Cl)n2)c(OC)c1 [Compound 8] | C (C denotes an activity range from 2.0 till 3.0)
8 | CCOC(=O)NCc1sc(Nc2cccc(C(F)(F)F)c2)nc1-c1cccnc1 [Compound 168] | E (E denotes an efficacy from at least 4.5)
9 | COc1ccc(OC)c(-c2csc(Nc3ccc(Cl)cc3Cl)n2)c1 [Compound 36] | C (C denotes an activity range from 2.0 till 3.0)
10 | Cc1cccc(Nc2nc(-c3cnc4sccn34)cs2)c1 [Compound 59] | B (B denotes an activity range from 1.5 till 2.0)
11 | COc1cc(OC)c(Nc2nc(-c3ccncc3)c(CN3CCCC3)s2)cc1Cl [Compound 99] | D (D denotes an activity range from 3.0 till 4.5)
12 | Fc1cccc(-c2nc(Nc3cccc(C(F)(F)F)c3)sc2F)c1 [Compound 7] | C (C denotes an activity range from 2.0 till 3.0)
13 | CCOC(=O)c1sc(Nc2ccc(Cl)cc2Cl)nc1-c1ccccc1 [int. 6, 2-(2,4-Dichloro-phenylamino)-4-phenyl-thiazole-5-carboxylic acid ethyl ester] | E (E denotes an efficacy from at least 4.5)
14 | CCOC(=O)c1sc(Nc2cc(Cl)ccc2Cl)nc1C1CC1 [Compound 152] | E (E denotes an efficacy from at least 4.5)
15 | Cc1ccccc1Nc1nc(-c2ccccc2)c(C(=O)Nc2cccnc2)s1 [Compound 172, 5-Thiazolecarboxamide, 2-[(2-methylphenyl)amino]-4-phenyl-N-3-pyridinyl-] | E (E denotes an efficacy from at least 4.5)
16 | Cc1sc(Nc2ccc(C(F)(F)F)cc2)nc1-c1cccnc1 [Compound 86] | D (D denotes an activity range from 3.0 till 4.5)
17 | COc1cc(OC)c(Nc2nc(-c3ccc4c(c3)OCCO4)c(CC(N)=O)s2)cc1Cl [Compound 96, 2-[(5-chloro-2,4-dimethoxyphenyl)amino]-4-(2,3-dihydro-1,4-benzodioxin-6-yl)-5-thiazoleacetamide] | E (E denotes an efficacy from at least 4.5)
18 | CCOC(=O)c1sc(Nc2cc(Cl)ccc2Cl)nc1C(F)F [Compound 153] | E (E denotes an efficacy from at least 4.5)
19 | Cc1ccc(-c2nc(Nc3cccc(C(F)(F)F)c3)sc2CO)cn1 [Compound 129] | E (E denotes an efficacy from at least 4.5)
20 | Fc1cccc(-c2csc(Nc3ccc(F)c(C(F)(F)F)c3)n2)c1 [Compound 79] | B (B denotes an activity range from 1.5 till 2.0)
21 | Cc1sc(Nc2ccc(Br)cc2)nc1-c1cccnc1 [Compound 137] | D (D denotes an activity range from 3.0 till 4.5)

Row | SMILES | Activity Range
22 | O=C(Cc1sc(Nc2cc(Cl)ccc2Cl)nc1-c1ccncc1)N1CCCC1 [Compound 162] | E (E denotes an efficacy from at least 4.5)
23 | Nc1cncc(-c2csc(Nc3ccc(F)c(C(F)(F)F)c3)n2)c1 [Compound 10] | A (A denotes an activity range from 1.1 till 1.5)
24 | CCCc1nc(Nc2cccc(C(F)(F)F)c2)sc1C(=O)OCC [Compound 155] | E (E denotes an efficacy from at least 4.5)
25 | COc1ccc(Nc2nc(-c3ccc4c(c3)OCCO4)c(CO)s2)c(OC)c1 [Compound 95, 4-(2,3-dihydro-1,4-benzodioxin-6-yl)-2-[(2,4-dimethoxyphenyl)amino]-5-thiazolemethanol] | E (E denotes an efficacy from at least 4.5)
26 | FC(F)(F)c1ccc(Nc2nc(-c3cccnc3)cs2)cn1 [Compound 65] | C (C denotes an activity range from 2.0 till 3.0)
27 | COc1ccc(-c2csc(Nc3ccc(Cl)cc3Cl)n2)c(OC)c1 [Compound 41] | A (A denotes an activity range from 1.1 till 1.5)
28 | CC(C)NC(=O)Cc1sc(Nc2cc(Cl)ccc2Cl)nc1-c1ccncc1 [Compound 161, 2-[(2,5-dichlorophenyl)amino]-N-(1-methylethyl)-4-(4-pyridinyl)-5-thiazoleacetamide] | E (E denotes an efficacy from at least 4.5)
29 | Cc1cccc(Nc2nc(-c3cnc4ccccn34)cs2)c1 [Compound 51] | C (C denotes an activity range from 2.0 till 3.0)
30 | CNC(=O)Cc1sc(Nc2cc(Cl)c(OC)cc2OC)nc1-c1ccc(F)c(F)c1 [Compound 134] | E (E denotes an efficacy from at least 4.5)
31 | Cc1cc(Nc2nc(-c3cccnc3)cs2)ccc1F [Compound 78] | B (B denotes an activity range from 1.5 till 2.0)
32 | COCc1sc(Nc2cc(Cl)ccc2Cl)nc1-c1ccccc1 [Compound 98] | E (E denotes an efficacy from at least 4.5)
33 | Clc1ccc(Nc2nc(-c3cnc4cnccn34)cs2)cc1 [Compound 75] | C (C denotes an activity range from 2.0 till 3.0)
34 | COc1ccc(OC)c(-c2csc(Nc3cccc(Cl)c3Cl)n2)c1 [Compound 39] | C (C denotes an activity range from 2.0 till 3.0)
35 | FC(F)(F)c1cncc(Nc2nc(-c3cnc4ccccn34)cs2)c1 [Compound 47] | C (C denotes an activity range from 2.0 till 3.0)
36 | COc1cc(OC)c(Nc2nc(-c3ccncc3)c(CN3CCOCC3)s2)cc1Cl [Compound 100] | D (D denotes an activity range from 3.0 till 4.5)
37 | FC(F)(F)c1cccc(Nc2nc(-c3cncnc3)cs2)c1 [Compound 73] | C (C denotes an activity range from 2.0 till 3.0)
38 | COc1ccc(OC)c(-c2csc(Nc3cccc4[nH]ncc34)n2)c1 [Compound 34] | C (C denotes an activity range from 2.0 till 3.0)
39 | COc1ccc(Nc2nc(-c3ccncc3)c(CO)s2)c(OC)c1 [Compound 123] | D (D denotes an activity range from 3.0 till 4.5)
40 | COc1cc(OC)c(Nc2nc(-c3ccc4c(c3)OCCO4)c(CC(=O)N3CCCC3)s2)cc1Cl [Compound 133] | E (E denotes an efficacy from at least 4.5)
41 | O=C(Nc1cccnc1)c1sc(Nc2ccccc2)nc1-c1ccccc1 [Compound 171, 5-Thiazolecarboxamide, 4-phenyl-2-(phenylamino)-N-3-pyridinyl-] | E (E denotes an efficacy from at least 4.5)
42 | COCCNC(=O)Cc1sc(Nc2cc(Cl)ccc2Cl)nc1-c1ccncc1 [Compound 106, 2-[(2,5-dichlorophenyl)amino]-N-(2-methoxyethyl)-4-(4-pyridinyl)-5-thiazoleacetamide] | E (E denotes an efficacy from at least 4.5)
